In brackets after ≈: the same amount, converted by molar mass.
Columns and labels:
[1] = Crystalline solubility in methanol (saturated solution, thermogravimetric analysis of supernatant); type: physicochemical; settings: organic solvent or mixture, thermodynamic from solid, no ammonia
Protocol: A saturated solution of sulfasalazine (Spectrum Chemical) was prepared in methanol with excess crystalline sulfasalazine.
A saturated solution of piroxicam (Spectrum Chemical) was prepared in methanol with excess crystalline piroxicam.

[2] = Concentration enhancement in methanol with ammonia; type: physicochemical; settings: for concentration in methanol in the presence of ammonia: methanol with about 1.07 molar equivalents of ammonia, completely dissolved; for time to dissolution after addition of ammonia: slurry in methanol, 2.14 M ammonia in methanol added with stirring; for solubility enhancement in methanol in the presence of ammonia: versus crystalline solubility in methanol without ammonia
Protocol: A second mixture of sulfasalazine in methanol was prepared by stirring 656.0 mg of sulfasalazine (1.65 mmol) in 14.00 mL of methanol. To this slurry, 0.825 mL of 2.14 M ammonia (1.76 mmol) in methanol was added with stirring resulting in complete dissolution of sulfasalazine within 1 minute.
A second mixture of piroxicam in methanol was prepared by stirring 661.8 mg of piroxicam (2.00 mmol) in 15.00 mL of methanol.

Row | SMILES | solubility [1] [µg/mL] | concentration in methanol in the presence of ammonia [2] | time to dissolution after addition of ammonia [2] [min] | solubility enhancement in methanol in the presence of ammonia [2]
1 | O=C(O)c1cc(/N=N/c2ccc(S(=O)(=O)Nc3ccccn3)cc2)ccc1O [sulfasalazine] | ~1000 (≈ 2.51 mM) | greater than 43 mg/mL | ≤ 1 | about 43 fold
2 | CN1C(C(=O)Nc2ccccn2)=C(O)c2ccccc2S1(=O)=O [piroxicam] | ~2100 (≈ 6.34 mM) | greater than 41 mg/mL | ≤ 1 | greater than 19 fold
